Measurements taken from PubChem BioAssay (NCI).
Where “and” joins values, the source holds several entries; their conditions need not be identical. Equal entries are not always repeated.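 Cultured in 96-well plates, cells were exposed to test compound for 48 hours across five concentrations. GI50 is the concentration that inhibits growth by half. Definition used: TGI = concentration required for complete inhibition of growth.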

How the values were obtained:
Test in all cases: NCI tumour cell line growth inhibition, 48 h
A549 NSCLC = test system: A549 NSCLC
BT-549 breast = test system: BT-549 breast
HL-60(TB) leukemia = test system: HL-60(TB) leukemia
HOP-62 NSCLC = test system: HOP-62 NSCLC
IGROV1 ovarian = test system: IGROV1 ovarian
NCI/ADR-RES ovarian = test system: NCI/ADR-RES ovarian
OVCAR-5 ovarian = test system: OVCAR-5 ovarian
OVCAR-8 ovarian = test system: OVCAR-8 ovarian
SF-295 CNS = test system: SF-295 CNS
SK-MEL-2 melanoma = test system: SK-MEL-2 melanoma

Structure (SMILES) | GI50 (A549 NSCLC) | TGI (A549 NSCLC) | GI50 (BT-549 breast) | TGI (BT-549 breast) | GI50 (HL-60(TB) leukemia) [µM] | TGI (HL-60(TB) leukemia) [µM] | GI50 (HOP-62 NSCLC) | TGI (HOP-62 NSCLC) | GI50 (IGROV1 ovarian) | TGI (IGROV1 ovarian) | GI50 (NCI/ADR-RES ovarian) [µM] | TGI (NCI/ADR-RES ovarian) [µM] | GI50 (OVCAR-5 ovarian) | TGI (OVCAR-5 ovarian) | GI50 (OVCAR-8 ovarian) | TGI (OVCAR-8 ovarian) | GI50 (SF-295 CNS) | TGI (SF-295 CNS) | GI50 (SK-MEL-2 melanoma) | TGI (SK-MEL-2 melanoma)
COc1ccc(/C=C/C(=O)c2ccc(Nc3nc(Nc4ccc(F)cc4)nc(Nc4ccc(Cl)cc4)n3)cc2)cc1 | > 100 µM | > 100 µM | > 100000 nM | > 100 µM | 84 | > 100 | > 100 µM | > 100 µM | 17700 nM | > 100 µM | > 100 | > 100 | > 100 µM | > 100 µM | > 100000 nM | > 100 µM | > 100 µM | > 100 µM | 41.3 µM | > 100 µM
O=C1NC(=O)C(c2ccccc2)=C1Nc1ccccc1 | > 25 µM | > 25 µM | > 25000 nM | > 25 µM | > 25 | > 25 | > 25 µM | > 25 µM | > 25000 nM | > 25 µM | > 25 | > 25 | > 25 µM | > 25 µM | > 25000 nM | > 25 µM | > 25 µM | > 25 µM | > 25 µM | > 25 µM
O=C(/C=C/c1cccc(S(=O)(=O)Nc2ccccc2)c1)NO | 0.459 µM and 0.0805 µM | 17.8 µM and 44.4 µM | 3530 nM and 2160 nM | 44.5 µM and 71.9 µM |  | 29.8 | 0.529 µM and 0.325 µM | 13.1 µM and 5.34 µM | 623 nM and 116 nM | 4.43 µM and > 26.6 µM |  | 6.51 | 0.428 µM and 0.146 µM | 13.2 µM and > 16.9 µM | 309 nM and 34.1 nM | 16.9 µM and 17 µM | 0.579 µM and 0.603 µM | 3.12 µM and 3.97 µM | 2.34 µM and 5.73 µM | 15.6 µM and > 71.2 µM
CCCCCCc1cc2cc(-c3csc(/C=C/c4ccccc4)n3)c(=O)oc2cc1O | 4.27 µM | 19 µM | 35600 nM | > 100 µM | 4.79 | 30.4 | 7.16 µM | 21.4 µM | 15900 nM | 38.3 µM | 4.53 | 17.7 | 40.8 µM | > 100 µM | 2790 nM | 9.55 µM | 13.1 µM | 27.2 µM | 18.1 µM | 41.1 µM
O=C(c1cccs1)c1nc2cc(Cl)ccc2[n+]([O-])c1C(F)(F)F | 54.8 µM | > 100 µM | > 100000 nM | > 100 µM | > 100 | > 100 | > 100 µM | > 100 µM | > 100000 nM | > 100 µM | > 100 | > 100 | > 100 µM | > 100 µM | > 100000 nM | > 100 µM | 91.3 µM | > 100 µM | 51.2 µM | > 100 µM
CCN1C(=O)N(CC)C2C1NC(=S)N2/N=C/C=C/c1ccccc1OC (configuration not stated) | 0.0403 µM | > 100 µM | 25.8 nM | 38.2 µM | 0.0264 | 0.0722 | 0.0463 µM | > 100 µM | 41.1 nM | > 100 µM | 0.0311 | > 100 | 0.0715 µM | > 100 µM | 37.8 nM | > 100 µM | 0.0306 µM | > 100 µM | 1.1 µM | > 100 µM
O=C1/C(=C\c2ccccc2)CN(C(=O)c2ccccc2)C/C1=C\c1ccccc1 | 3.63 µM | 16.3 µM | 1860 nM | 3.58 µM | 4.29 | 52.7 | 3.21 µM | 10.7 µM | 2660 nM | 6.57 µM | 3.69 | 37.6 | 2.24 µM | 6.83 µM | 2960 nM | 11.1 µM |  |  | 3.5 µM | 8.96 µM
COc1ncc(-c2ccc3nccc(C#CCN4CCN(S(C)(=O)=O)CC4)c3c2)cc1NS(=O)(=O)c1ccc(F)cc1F | 0.083 µM | 7.68 µM | 39 nM | 0.874 µM | 0.0257 | 1.81 | < 0.0159 µM | 5.56 µM | < 10 nM | 0.0333 µM | 0.465 | 12.4 | 0.0207 µM | 5.72 µM | 256 nM | 11.7 µM | 0.0684 µM | 1.17 µM | 0.116 µM | 1.13 µM
CN(CSc1ccc(Cl)cc1)c1ccc(CSc2ccc(Cl)cc2)cc1 | 5.22 µM | 34.4 µM | 1160 nM | 3.6 µM | 1.57 | 32 | 13.6 µM | 29.9 µM |  |  | 8 | 30.1 | 13.5 µM | 34.5 µM | 13600 nM | 39.8 µM | 2.86 µM | 13.7 µM | 14.2 µM | 36.2 µM
NCCCNc1nc2ccc(Cl)cc2c2c(=O)c3cc(F)ccc3sc12 | 1.77 µM | 3.89 µM | 14300 nM | 29.6 µM | 3.13 | 10.7 | 6.47 µM | 28.5 µM | 1910 nM | 5.1 µM | 2.23 | 5.62 | 3.38 µM | 14.3 µM | 3240 nM | 15.1 µM | 12 µM | 26.5 µM | 12.4 µM | 33.3 µM
C=C(CN1CCN(c2ccccc2C(F)(F)F)CC1)c1ccc(C(=O)Nc2ccccc2N)cc1 | 4.17 µM | 33.8 µM | 2670 nM | 14 µM | 0.037 | 0.756 | 4.76 µM | > 44.4 µM | 6030 nM | > 100 µM | 2.01 | 10.5 | 11.8 µM | > 100 µM | 3840 nM | > 100 µM | 5.98 µM | 42.9 µM | 10.3 µM | > 95.1 µM
N#Cc1c2ccccc2c2nnc3ccc(C(F)(F)F)cc3n12 | 26.9 µM | > 100 µM | 21000 nM | 44.6 µM | 40 | > 100 | > 100 µM | > 100 µM | 47900 nM | > 100 µM | 72.7 | > 100 |  |  | 43800 nM | > 100 µM | 42.7 µM | > 100 µM | 23.5 µM | 85.2 µM
